Assay results from patent publication US11628166B2, “Therapeutic uses of compounds having combined sert, 5-HT3 and 5-HT1a activity” (H. Lundbeck A/S, priority 2007, dated 2023).

Legend:
[1] = Solubility in water; format: physicochemical
[2] = Hygroscopicity / water absorption on exposure to humidity; format: physicochemical
[3] = Contextual fear conditioning in rats; format: in vivo, rat; conditions: for time spent freezing during the retention test: test 24 h after acquisition
Excerpt: The compound administered in the present experiment was 1-[2-(2,4-dimethylphenyl-sulfanyl)phenyl]piperazine HBr salt.
We have studied the effect of the compound on acquisition, consolidation and recall of contextual fear conditioning in rats. In the fear conditioning paradigm animals learn to associate a neutral environment (context, the training chamber, CS) with an aversive experience (an electrical foot-shock, US). During re-exposure to the training chamber, animals express a freezing behaviour, which is taken as a direct measure of the fear-related memory [Pavlov J. Biol. Sci., 15, 177-182, 1980]. […] Neurosci., 106, 274-285, 1992].
Adult male Sprague-Dawley rats (weighing 250-300 g at time of training) from Charles River Laboratories, housed two per cage under a 12 h light/dark cycle, were used. Food and water were available ad libitum. Rats were used 1 week after arrival. The compound was dissolved in 10% HPbetaCD and injected subcutaneously. The drug was administered in a volume of 2.5 ml/kg.
Training and testing were conducted in a soundproof chamber (30×20×40 cm) housed in an isolated room and connected to a ventilation system. Illumination was provided by a white light (60 Watt). The floor of the chamber consisted of a metal grid attached to an electric shock generator. Prior to training and testing, the chamber was cleaned with a 70% ethanol solution. A video camera allowed for behavioral observations and recording of the training session for off-line analysis.
During the acquisition animals were allowed to freely explore the novel environment for a 1 min habituation period, which co-terminated with one inescapable foot-shock (unconditioned stimulus, US) through the electrifiable grid floor. […] Animals remained in the conditioning chamber for another 60 s after the US. Freezing behaviour was scored during the first 58 s (pre-shock acquisition; experimenter blinded to groups) to determine baseline-freezing responses to the context. At the end of the acquisition animals were gently removed and placed into their home cages. After 24 h the same animals were reintroduced into the training context (fear conditioning chamber) and a 2 min retention test was performed. During this period no foot shocks were applied. Freezing behaviour was scored during the whole test period with the experimenter blinded to groups and presented as percent of total test period.

[4] = Microdialysis, extracellular acetylcholine levels in brain of freely moving rats; format: in vivo, rat; conditions: 2.5-10 mg/kg s.c.
Procedure: The animals were administered 1-[2-(2,4-dimethylphenylsulfanyl)phenyl]piperazine, HBr salt.
Male Sprague-Dawley rats, initially weighing 275-300 g, were used. The animals were housed under a 12-hr light/dark cycle under controlled conditions for regular in-door temperature (21±2° C.) and humidity (55±5%) with food and tap water available ad libitum.
Rats were anaesthetised with hypnorm/dormicum (2 ml/kg) and intracerebral guide cannulas (CMA/12) were stereotaxically implanted into the brain, aiming at positioning the dialysis probe tip in the ventral hippocampus (co-ordinates: 5.6 mm posterior to bregma, lateral −5.0 mm, 7.0 mm ventral to dura) or in the prefrontal cortex (co-ordinates: 3.2 mm anterior to bregma; lateral, 0.8 mm; 4.0 mm ventral to dura). […] The body temperature of the animals was monitored by rectal probe and maintained at 37° C. […]
The compound dissolved in 10% HPbetaCD and injected subcutaneously (2.5-10 mg/kg). Doses are expressed as mg salt/kg body weight. […]
Concentration of acetylcholine (ACh) in the dialysates was analysed by means of HPLC with electrochemical detection using a mobile phase consisting of 100 mM disodium hydrogenphosphate, 2.0 mM octane sulfonic acid, 0.5 mM tetramethylammonium chloride and 0.005% MB (ESA), pH 8.0. […] The latter was detected electrochemical by using a platinum electrode (Analytical cell: ESA, model 5040). […]

[5] = Clinical trial, sexually related adverse effects reported by patients; format: in vivo, human
Procedure: (§1) The HAM-D scale may be used to assess the severity of depression in patients by means of a 24 items questionnaire. Item 4, 5 and 6 of the scale relate to how the patients sleep, i.e., is it easy to fall asleep (insomnia Early), does the patient wake up during the night (Insomnia Middle), and does the patient wake up early in the morning (Insomnia Late). The compound was tested at 5 and 10 mg daily against placebo with approximately 100 patients per arm. […] It is well-known that sleep disturbances are a general adverse effect of most antidepressants. In particular SSRI's and compounds which inhibit the noradrenaline transporter are reported to give rise to problems with sleep initiation and maintenance and problems with insomnia are also often reported [Int.Clin.Psychpharm., 21 (suppl 1), S25-S29, 2006]. Others report that such compounds give rise to suppressed REM sleep, increased sleep latency, less efficient sleep, increase in nocturnal awakenings, and fragmentation of sleep [Hum.Psychopharm.Clin.Exp., 20, 533-559, 2005].
The above mentioned clinical trial also captured sexual adverse effects reported by the patients.

[6] = molecular target: Human serotonin transporter (Homo sapiens, UniProt P31645); test: Human serotonin transporter, blockade of 5-HT uptake; format: biochemical
[7] = Mouse intradermal formalin test; format: in vivo; conditions: ~20-30 minutes after formalin
Procedure: In this model, mice receive an injection of formalin (4.5%, 20 μl) into the left hind paw. The irritation caused by the formalin injection elicits a characteristic biphasic behavioural response, as quantified by the amount of time spent licking the injured paw.
The first phase (˜0-10 minutes) represents direct chemical irritation and nociception, whereas the second phase (˜20-30 minutes) is thought to represent pain of […] origin. The two phases are separated by a quiescent period in which behaviour returns to normal. The effectiveness of test compounds to reduce the painful stimuli is assessed by counting the amount of time spent licking the injured paw in the two phases.

[8] = Clinical trial, HAM-D items 4, 5 and 6 (insomnia early, middle, late); format: in vivo, human; conditions: 5 and 10 mg daily vs placebo, 6 weeks, approx. 100 patients per arm
Procedure: as §1

Sequence of Human serotonin transporter (P31645 whole entry): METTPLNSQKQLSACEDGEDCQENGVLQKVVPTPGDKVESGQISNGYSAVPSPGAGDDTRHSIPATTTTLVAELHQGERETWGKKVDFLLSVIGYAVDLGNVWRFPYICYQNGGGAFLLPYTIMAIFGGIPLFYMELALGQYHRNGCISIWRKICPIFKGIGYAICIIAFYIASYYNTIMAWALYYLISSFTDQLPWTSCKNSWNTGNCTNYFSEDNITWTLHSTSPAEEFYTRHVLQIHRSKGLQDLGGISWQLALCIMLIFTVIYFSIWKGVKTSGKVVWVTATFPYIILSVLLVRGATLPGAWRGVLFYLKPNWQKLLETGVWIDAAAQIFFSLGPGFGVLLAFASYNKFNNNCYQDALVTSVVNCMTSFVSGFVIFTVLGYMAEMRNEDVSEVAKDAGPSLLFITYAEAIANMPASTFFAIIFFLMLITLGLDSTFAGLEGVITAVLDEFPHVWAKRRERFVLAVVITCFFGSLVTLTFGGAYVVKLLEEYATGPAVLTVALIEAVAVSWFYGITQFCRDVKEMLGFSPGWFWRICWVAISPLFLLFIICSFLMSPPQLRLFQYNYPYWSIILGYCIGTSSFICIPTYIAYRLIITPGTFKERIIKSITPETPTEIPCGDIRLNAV

Br.Cc1ccc(Sc2ccccc2N2CCNCC2)c(C)c1 [alpha form of the hydrobromide]
solubility in water [1]: 2000 µg/mL

Br.Cc1ccc(Sc2ccccc2N2CCNCC2)c(C)c1 [hemi hydrate of the hydrobromide]
water content ([2]; room temperature and 95% RH): about 3.7%

Br.Cc1ccc(Sc2ccccc2N2CCNCC2)c(C)c1 [beta form of the hydrobromide]
solubility in water [1]: 1200 µg/mL

Cc1ccc(Sc2ccccc2N2CCNCC2)c(C)c1 [Crystalline base, 1-[2-(2,4-dimethylphenylsulfanyl)-phenyl]piperazine]
hygroscopicity [2]: not hygroscopic

Br.Cc1ccc(Sc2ccccc2N2CCNCC2)c(C)c1 [1-[2-(2,4-dimethylphenylsulfanyl)phenyl]piperazine HBr salt]
time spent freezing during the retention test ([3]; 5 mg/kg s.c. 1 h prior to acquisition, n=6): 39.24±13.76%
freezing behaviour during the memory test ([3]; 5 mg/kg s.c. 1 h prior to the retention test, n=9, p<0.05): 12.86±3.57%
time spent freezing during the retention test ([3]; 5 mg/kg s.c. after the acquisition session, n=8, p<0.05): 45.58±4.50%
time spent freezing during the retention test ([3]; 10 mg/kg s.c. 1 h prior to acquisition, n=10, p<0.01): 52.15±5.68%
baseline freezing behaviour before the foot shock ([3]; 1, 5 and 10 mg/kg s.c., 1 h prior to acquisition): does not affect baseline freezing behaviour
extra-cellular levels of ACh in prefrontal cortex ([4]; rat prefrontal cortex): significantly increased
extra-cellular levels of ACh in ventral hippocampus ([4]; rat ventral hippocampus): significantly increased

Br.Cc1ccc(Sc2ccccc2N2CCNCC2)c(C)c1 [gamma form of the hydrobromide]
water absorbed ([2]; 30% RH at room temperature): about 2%

Cc1ccc(Sc2ccccc2N2CCNCC2)c(C)c1 [compound I, 1-[2-(2,4-dimethylphenyl-sulfanyl)-phenyl]piperazine]
number of patients reporting Anorgasmia ([5]; 5 mg daily): 0
number of patients reporting Ejaculation delayed ([5]; 5 mg daily): 0
number of patients reporting Erectile dysfunction ([5]; 5 mg daily): 0
number of patients reporting Libido decreased ([5]; 5 mg daily): 1
number of patients reporting Loss of libido ([5]; 5 mg daily): 1
number of patients reporting Orgasm abnormal ([5]; 5 mg daily): 0
number of patients reporting Orgasmic sensation decreased ([5]; 5 mg daily): 0
number of patients reporting Anorgasmia ([5]; 10 mg daily): 0
number of patients reporting Ejaculation delayed ([5]; 10 mg daily): 0
number of patients reporting Erectile dysfunction ([5]; 10 mg daily): 0
number of patients reporting Libido decreased ([5]; 10 mg daily): 1
number of patients reporting Loss of libido ([5]; 10 mg daily): 0
number of patients reporting Orgasm abnormal ([5]; 10 mg daily): 0
number of patients reporting Orgasmic sensation decreased ([5]; 10 mg daily): 0
IC50 [6]: 5.4 nM
second phase pain scores (time spent licking the paw) [7]: significant reduction
change in sleep pattern, HAM-D items 4-6 [8]: large and dose dependent improvement of the sleep pattern
